Drawing on patent publication US9303035B2, “Substituted pyrazino[1′,2′:1,2]pyrrolo[3,4-d]pyrimidines, pyrimido[4′,5′:3,4]pyrrolo[2,1-c][1,4]oxazines and pyrimido[4′,5′:3,4]pyrrolo[1,2-d][1,4]oxazepines for inhibiting the CFTR channel” (Novartis AG, priority 2012, dated 2016), this text covers IC50 for eleven compounds.

CFTR (WT-CFTR channels stably expressed in CHO cells), sequence (P13569 whole entry): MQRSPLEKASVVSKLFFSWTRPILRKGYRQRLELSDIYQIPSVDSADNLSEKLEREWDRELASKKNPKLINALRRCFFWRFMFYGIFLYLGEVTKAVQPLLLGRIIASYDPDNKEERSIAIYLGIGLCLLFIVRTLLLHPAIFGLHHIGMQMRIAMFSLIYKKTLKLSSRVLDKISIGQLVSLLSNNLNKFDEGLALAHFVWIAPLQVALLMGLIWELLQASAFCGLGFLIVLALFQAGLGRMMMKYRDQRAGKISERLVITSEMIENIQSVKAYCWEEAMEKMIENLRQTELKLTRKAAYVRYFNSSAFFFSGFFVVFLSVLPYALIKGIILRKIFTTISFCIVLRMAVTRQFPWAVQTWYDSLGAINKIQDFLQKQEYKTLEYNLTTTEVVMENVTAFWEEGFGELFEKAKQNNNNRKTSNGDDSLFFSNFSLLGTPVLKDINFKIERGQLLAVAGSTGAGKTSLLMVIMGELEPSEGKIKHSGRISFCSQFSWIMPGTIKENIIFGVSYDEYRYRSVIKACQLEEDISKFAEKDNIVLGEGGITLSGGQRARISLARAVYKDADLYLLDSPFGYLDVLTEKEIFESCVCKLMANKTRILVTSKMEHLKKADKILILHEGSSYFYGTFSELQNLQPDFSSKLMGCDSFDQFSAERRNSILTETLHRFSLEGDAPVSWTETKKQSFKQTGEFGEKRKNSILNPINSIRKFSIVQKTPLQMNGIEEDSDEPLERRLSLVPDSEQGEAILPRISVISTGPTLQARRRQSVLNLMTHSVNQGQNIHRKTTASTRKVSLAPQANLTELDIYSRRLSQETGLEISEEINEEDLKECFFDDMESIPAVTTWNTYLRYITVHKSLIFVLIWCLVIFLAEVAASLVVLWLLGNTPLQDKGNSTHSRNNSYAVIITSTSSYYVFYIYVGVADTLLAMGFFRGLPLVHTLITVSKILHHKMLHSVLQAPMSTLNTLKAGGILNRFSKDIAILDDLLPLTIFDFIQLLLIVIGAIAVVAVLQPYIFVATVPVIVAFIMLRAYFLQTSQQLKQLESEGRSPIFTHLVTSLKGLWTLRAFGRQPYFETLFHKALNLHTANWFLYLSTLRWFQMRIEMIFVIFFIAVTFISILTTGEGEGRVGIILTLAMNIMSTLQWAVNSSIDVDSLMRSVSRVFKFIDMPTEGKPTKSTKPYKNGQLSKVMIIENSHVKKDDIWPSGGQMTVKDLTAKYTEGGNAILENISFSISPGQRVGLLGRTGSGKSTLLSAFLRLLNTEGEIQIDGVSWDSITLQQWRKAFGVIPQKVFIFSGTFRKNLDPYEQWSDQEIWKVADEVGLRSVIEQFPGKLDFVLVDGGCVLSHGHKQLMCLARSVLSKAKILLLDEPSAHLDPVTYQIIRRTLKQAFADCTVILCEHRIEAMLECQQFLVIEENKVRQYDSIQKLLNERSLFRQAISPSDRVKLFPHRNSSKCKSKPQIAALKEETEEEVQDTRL

The target in this test is CFTR (WT-CFTR channels stably expressed in CHO cells) (Homo sapiens (Human), UniProt P13569). The test can be described thus: IonWorks Quattro CFTR inhibitor assay (whole-cell population patch clamp, forskolin-activated current). The conditions noted are these: inward current (−100 mV); CHO cells stably expressing WT-CFTR; CFTR activated with 10 μM forskolin; 10 min compound incubation. It is filed as cell-based. The text has this:
CFTR activity can be quantified by electrophysiology methods, using the whole-cell configuration of the patch clamp technique (Hamill O, Marty A, Neher E, Sakmann B and Sigworth F. ‘Improved patch-clamp techniques for high resolution current recording from cells and cell-free membrane patches.’ Pflugers Archive 1981 391: 85-100). This assay directly measures the currents associated with chloride flow through CFTR channels whilst either maintaining or adjusting the transmembrane voltage. This assay can use either single glass micropipettes or parallel planar arrays to measure CFTR activity from native or recombinant cell systems. Currents measured using parallel planar arrays can be quantified using an appropriately equipped instrument such as the IonWorks Quattro (Molecular Devices Corporation, Sunnyvale, Calif.). The Quattro system can measure CFTR currents from either a single cell per recording well (HT configuration) or alternatively from a population of 64 cells per well (Population Patch Clamp PPC) (Finkel A, Wittel A, Yang N, Handran S, Hughes J, Costantin J. ‘Population patch clamp improves data consistency and success rates in the measurement of ionic currents.’ J Biomol Screen. 2006 August; 11(5):488-96).
Chinese hamster ovary (CHO) cells stably expressing WT-CFTR channels were used for the IonWorks Quattro experiments. Cells were maintained at 37° C. in 5% v/v CO2 at 100% humidity in MEM alpha medium supplemented with 10% (v/v) FCS, 100 U/mL Penicillin/Streptomycin, and 100 μg/L methotrexate. For experiments, cells were grown in 225 cm^2 tissue culture flasks until almost confluent. Cells were removed from the flask using trypsin-EDTA and resuspended in extracellular recording solution for immediate experimentation.
Cells, at a density of 1.5-2 million per mL, were placed on the Quattro system, added to the planar patch plate and seals allowed to establish for 5-10 mins. After assessing seal resistances (typically >50 MΩ), whole-cell access was obtained by perforation with 100 μg/mL amphotericin B. Baseline currents were measured by a pre-compound scan obtained by application of a voltage ramp from −100 to +100 mV. CFTR was activated by the addition of 10 μM forskolin to each of the 384 wells of the patch plate. After 5 min incubation the post-compound 1 currents were measured, again by application of a voltage ramp from −100 to +100 mV. Test compounds, diluted from 10 mM stocks in DMSO in extracellular solution were then added to the patch plate and were incubated for a further 10 min. The post-compound 2 currents were measured by the application of the same voltage ramp from −100 to +100 mV. The inhibition of CFTR was determined from the difference in current between the forskolin addition (post-compound 1) and the test compound (post-compound 2). This was determined at both −100 mV and +100 mV which represents the inward and outward current respectively.
Extracellular solution (ECS): 145 mM NaCl, 4 mM CsCl, 5 mM D-glucose, 10 mM TES, 1 mM CaCl2, 1 mM MgCl2, pH 7.4 NaOH
Intracellular solution (ICS): 113 mM L-Aspartic acid, 113 mM CsOH, 27 mM CsCl, 1 mM NaCl, 1 mM MgCl2, 1 mM EGTA, 10 mM TES. pH 7.2 with CsOH. Filter sterilized before use.
Compound `Cc1ccc(C2NCCn3c(-c4ccccc4)c4c(=O)n(C)c(=O)n(C)c4c32)o1` (racemic) [Example 1.1, 1,3-Dimethyl-10-(5-methylfuran-2-yl)-5-phenyl-7,8,9,10-tetrahydropyrazino[1′,2′:1,2]pyrrolo[3,4-d]pyrimidine-2,4(1H,3H)-dione] gave an IC50 of 4.64 µM.
`Cc1ccc(C2OCCn3c(-c4ccccc4)c4c(=O)n(C)c(=O)n(C)c4c32)o1` (racemic) [Example 4.1, 1,3-Dimethyl-10-(5-methylfuran-2-yl)-5-phenyl-7,8-dihydro-1H-pyrimido[4′,5′:3,4]pyrrolo[2,1-c][1,4]oxazine-2,4(3H,10H)-dione] had an IC50 of 4.23 µM.
To `Cc1ccc([C@H]2NCCn3c(-c4ccccc4)c4c(=O)n(C)c(=O)n(C)c4c32)o1` (single isomer, unassigned) [Example 1.3] belongs more than 30 µM; to `Cn1c(=O)c2c(-c3ccccc3)n3c(c2n(C)c1=O)C(c1nc(C(F)(F)F)cs1)NCC3` (single isomer, unassigned) [Example 2.4, 1,3-Dimethyl-5-phenyl-10-(4-(trifluoromethyl)thiazol-2-yl)-7,8,9,10-tetrahydropyrazino[1′,2′:1,2]pyrrolo[3,4-d]pyrimidine-2,4(1H,3H)-dione], 4.98 µM.
`Cn1c(=O)c2c(-c3ccccc3)n3c(c2n(C)c1=O)C(C1CCCCC1)NCC3` (single isomer, unassigned) [Example 2.6, 10-Cyclohexyl-1,3-dimethyl-5-phenyl-7,8,9,10-tetrahydropyrazino[1′,2′:1,2]pyrrolo[3,4-d]pyrimidine-2,4(1H,3H)-dione] yielded an IC50 of 7.62 µM.
Consider `Cn1c(=O)c2c(-c3cccc(C#N)c3)n3c(c2n(C)c1=O)C(c1ccc(Cl)o1)NCC3` (single isomer, unassigned) [Example 2.9, 3-(10-(5-chlorofuran-2-yl)-1,3-dimethyl-2,4-dioxo-1,2,3,4,7,8,9,10-octahydropyrazino[1′,2′:1,2]pyrrolo[3,4-d]pyrimidin-5-yl)benzonitrile], for which the IC50 was 0.59 µM.
The figure for `Cc1ccc(C2OCCn3c(-c4ccccc4)c4c(=O)n(C)c(=O)n(C)c4c32)o1` (single isomer, unassigned) [Example 4.2, 1,3-dimethyl-10-(5-methylfuran-2-yl)-5-phenyl-7,8-dihydro-1H-pyrimido[4′,5′:3,4]pyrrolo[2,1-c][1,4]oxazine-2,4(3H,10H)-dione] is more than 30 µM; for `Cc1ccc(C2OCCn3c(-c4ccccc4)c4c(=O)n(C)c(=O)n(C)c4c32)o1` (single isomer, unassigned) [Example 4.3, 1,3-dimethyl-10-(5-methylfuran-2-yl)-5-phenyl-7,8-dihydro-1H-pyrimido[4′,5′:3,4]pyrrolo[2,1-c][1,4]oxazine-2,4(3H,10H)-dione] it is 3.16 µM; for `Cn1c(=O)c2c(-c3nc(CO)cs3)n3c(c2n(C)c1=O)C(c1ccc(Cl)o1)O[C@@H](CO)C3` (single isomer, unassigned) [Example 7.1a, 10-(5-Chlorofuran-2-yl)-8-(hydroxymethyl)-5-(4-(hydroxymethyl)thiazol-2-yl)-1,3-dimethyl-7,8-dihydro-1H-pyrimido[4′,5′:3,4]pyrrolo[2,1-c][1,4]oxazine-2,4(3H,10H)-dione] it is 0.61 µM.
To `Cn1c(=O)c2c(-c3cccc(C#N)c3)n3c(c2n(C)c1=O)[C@@H](c1nc(Cl)cs1)O[C@H](CO)C3` (single isomer, unassigned) [Example 9b, 3-(10-(4-Chlorothiazol-2-yl)-8-(hydroxymethyl)-1,3-dimethyl-2,4-dioxo-2,3,4,7,8,10-hexahydro-1H-pyrimido[4′,5′:3,4]pyrrolo[2,1-c][1,4]oxazin-5-yl)benzonitrile] belongs 8.06 µM.
To `Cn1c(=O)c2c(-c3cccc(C#N)c3)n3c(c2n(C)c1=O)[C@H](c1ccc(Cl)o1)O[C@@H](CO)C3` (stereo in doubt) [Example 6.1, 3-(10-(5-chlorofuran-2-yl)-8-(hydroxymethyl)-1,3-dimethyl-2,4-dioxo-2,3,4,7,8,10-hexahydro-1H-pyrimido[4′,5′:3,4]pyrrolo[2,1-c][1,4]oxazin-5-yl)benzonitrile] belongs 0.24 µM.

A word on the IC50: it is the concentration needed to halve the response being measured.
